Experimental data: PMC11191095, “QSAR Reveals Decreased Lipophilicity of Polar Residues Determines the Selectivity of Antimicrobial Peptide Activity” (ACS Omega, 2024)
Values after ≈ are worked out from the molar mass of the structure shown. Where a SMILES comes first, the peptide text is derived from it.

Assays:
Assay in all cases: microbe, parasite or virus in culture
S. aureus (MRSA) USA300 = assay type: cell-based, Staphylococcus aureus; conditions: for MIC: Staphylococcus aureus, 20 h, read-out: Modal MIC
Experimental: (§1) Antimicrobial activity was evaluated against a panel of 18 pathogens consisting of eight Gram-negative strains (E. coli NCTC 12923, E. coli LEC001, Pseudomonas aeruginosa PAO1, P. aeruginosa NCTC 13437, Acinetobacter baumannii ATCC 17978, A. baumannii AYE, Klebsiella pneumoniae M6, K. pneumoniae NCTC 13368), four Gram-positive strains (Staphylococcus aureus ATCC 9144, S. aureus NCTC 13616, S. aureus USA300, S. aureus 1199B) and six fungi (Candida auris TDG 1912, C. albicans NCPF 8018, C. krusei NCPF 3876, C. tropicalis NCPF 8760, and C. parapsilosis NCPF 3209). Pathogens were grown in noncation adjusted Mueller Hinton broth (MHB, for bacteria) or Roswell Park Memorial Institute (RPMI 1640) + 2% glucose (for fungi) at 37 °C with 180 rpm shaking and maintained on solid media (tryptic soy agar for bacteria and Sabouraud dextrose agar for fungi). For an antibiogram, see Suppl.
(§2) The 46 peptides were serially diluted (128 to 2 μg/mL) in media down polypropylene 96-well plates. Bacteria or fungi, diluted from an overnight culture to an OD600 of 0.01, were added to the serially diluted peptides at a 1:1 ratio resulting in a starting cell density of ∼5 × 10^5 CFU/mL. Plates were incubated at 37 °C for 20 h, and the optical density was determined spectrophotometrically at 600 nm. Minimum inhibition concentrations (MICs) were determined from a minimum of three biological repeats and are reported in μg/mL as well as μM. […] The MIC50 or MIC90 is defined as the lowest peptide concentration that results in 50% or 90% growth inhibition over a 20 h treatment period, respectively.

[1] = system: S. aureus (MRSA) NCTC 13616; assay type: cell-based, Staphylococcus aureus; conditions: for MIC: Staphylococcus aureus, 20 h, read-out: Modal MIC
Experimental: as §1, §2

S. aureus (MRSA) 1199B = assay type: cell-based, Staphylococcus aureus; conditions: for MIC: Staphylococcus aureus, MRSA, 20 h, read-out: Modal MIC
Experimental: as §1, §2

[2] = system: S. aureus (MSSA) ATCC 9144; assay type: cell-based, Staphylococcus aureus; conditions: for MIC: Staphylococcus aureus, 20 h, read-out: Modal MIC
Experimental: as §1, §2

E. coli LEC001 = assay type: cell-based, Escherichia coli; conditions: for MIC: Escherichia coli, LEC001, 20 h, read-out: Modal MIC
Experimental: as §1, §2

E. coli NCTC 12923 = assay type: cell-based, Escherichia coli; conditions: for MIC: Escherichia coli, NCTC12923, 20 h, read-out: Modal MIC
Experimental: as §1, §2

K. pneumoniae NCTC 13368 = assay type: cell-based, Klebsiella pneumoniae; conditions: for MIC: Klebsiella pneumoniae, NCTC13368, 20 h, read-out: Modal MIC
Experimental: as §1, §2

K. pneumoniae M6 = assay type: cell-based, Klebsiella pneumoniae; conditions: for MIC: Klebsiella pneumoniae, M6, 20 h, read-out: Modal MIC
Experimental: as §1, §2

P. aeruginosa NCTC 13437 = assay type: cell-based, Pseudomonas aeruginosa; conditions: for MIC: Pseudomonas aeruginosa, NCTC13437, 20 h, read-out: Modal MIC; for Modal MIC: P. aeruginosa NCTC 13437 (R)
Experimental: as §1, §2

P. aeruginosa PAO1 = assay type: cell-based, Pseudomonas aeruginosa; conditions: for MIC: Pseudomonas aeruginosa, PAO1, 20 h, read-out: Modal MIC; for Modal MIC: P. aeruginosa PAO1 (S)
Experimental: as §1, §2

A. baumannii AYE = assay type: cell-based, Acinetobacter baumannii; conditions: for MIC: Acinetobacter baumannii, 20 h, read-out: Modal MIC
Experimental: as §1, §2

A. baumannii ATCC 17978 = assay type: cell-based, Acinetobacter baumannii; conditions: for MIC: Acinetobacter baumannii, ATCC17978, 20 h, read-out: Modal MIC
Experimental: as §1, §2

C. auris TDG 1912 = assay type: cell-based, Candida auris; conditions: C. auris TDG 1912
Experimental: as §1, §2

C. albicans NCPF 3281 = assay type: cell-based; conditions: C. albicans NCPF 3281
Experimental: as §1, §2

[3] = system: C. parapsilosis NCPF 3209; assay type: cell-based; conditions: C. parapsilosis NCPF 3209
Experimental: as §1, §2

C. krusei NCPF 3876 = assay type: cell-based; conditions: C. krusei NCPF 3876; shown in µM
Experimental: as §1, §2

C. tropicalis NCPF 8760 = assay type: cell-based; conditions: C. tropicalis NCPF 8760; shown in µM
Experimental: as §1, §2

C. glabrata NCPF 8018 = assay type: cell-based; conditions: C. glabrata NCPF 8018
Experimental: as §1, §2

[4] = 50% growth inhibition, RPMI 1640 + 2% glucose, 37 °C, 20 h
[5] = 90% growth inhibition, RPMI 1640 + 2% glucose, 37 °C, 20 h
[6] = MHB, 37 °C, 20 h, OD600, min. three biological repeats

## CC(C)(O/N=C(\C(=O)N[C@@H]1C(=O)N2C(C(=O)[O-])=C(C[n+]3ccccc3)CS[C@H]12)c1csc(N)n1)C(=O)O [Ceftazidime, reference compound]
S. aureus (MRSA) USA300
  MIC: 32 µg/mL (≈ 58.5 µM)
[1]
  MIC: 128 µg/mL (≈ 234 µM)
S. aureus (MRSA) 1199B
  MIC: 8 µg/mL (≈ 14.6 µM)
[2]
  MIC: 16 µg/mL (≈ 29.3 µM)
E. coli LEC001
  MIC: 128 µg/mL (≈ 234 µM)
E. coli NCTC 12923
  MIC: ≤ 0.125 µg/mL
K. pneumoniae NCTC 13368
  MIC: 512 µg/mL (≈ 937 µM)
K. pneumoniae M6
  MIC: < 0.5 µg/mL
P. aeruginosa NCTC 13437
  MIC: > 128 µg/mL
P. aeruginosa PAO1
  MIC: 1 µg/mL (≈ 1.83 µM)
A. baumannii AYE
  MIC: > 128 µg/mL
A. baumannii ATCC 17978
  MIC: < 0.5 µg/mL

## O=C(O)c1cn(C2CC2)c2cc(N3CCNCC3)c(F)cc2c1=O [Ciprofloxacin, reference compound]
S. aureus (MRSA) USA300
  MIC: 64 µg/mL (≈ 193 µM)
[1]
  MIC: 64 µg/mL (≈ 193 µM)
S. aureus (MRSA) 1199B
  MIC: 8 µg/mL (≈ 24.1 µM)
[2]
  MIC: 1 µg/mL (≈ 3.02 µM)
E. coli LEC001
  MIC: 32 µg/mL (≈ 96.6 µM)
E. coli NCTC 12923
  MIC: ≤ 0.125 µg/mL
K. pneumoniae NCTC 13368
  MIC: 0.5 µg/mL (≈ 1.51 µM)
K. pneumoniae M6
  MIC: < 0.5 µg/mL
P. aeruginosa NCTC 13437
  MIC: 64 µg/mL (≈ 193 µM)
P. aeruginosa PAO1
  MIC: 0.5 µg/mL (≈ 1.51 µM)
A. baumannii AYE
  MIC: 128 µg/mL (≈ 386 µM)
A. baumannii ATCC 17978
  MIC: 0.5 µg/mL (≈ 1.51 µM)

## CC[C@H](C)[C@H](NC(=O)[C@H](C)NC(=O)CNC(=O)[C@H](C)NC(=O)[C@H](CCCCN)NC(=O)[C@H](CO)NC(=O)[C@H](C)NC(=O)[C@H](CCSC)NC(=O)CN)C(=O)N[C@@H](C)C(=O)NCC(=O)N[C@@H](CCCCN)C(=O)N[C@H](C(=O)N[C@@H](C)C(=O)N[C@@H](CCCCN)C(=O)N[C@H](C(=O)N[C@@H](C)C(=O)N[C@@H](CC(C)C)C(=O)N[C@@H](CCCCN)C(=O)N[C@@H](C)C(=O)N[C@@H](CC(C)C)C(N)=O)C(C)C)[C@@H](C)CC [DRAMP02272a] (H-GMASKAGAIAGKIAKVALKAL-NH2)
S. aureus (MRSA) USA300; S. aureus (MRSA) USA300 (R), shown in µM
  Modal MIC: 16 µM
[1]; S. aureus (MRSA) NCTC 13616 (R), shown in µM
  Modal MIC: 8 µM
S. aureus (MRSA) 1199B; S. aureus (MRSA) 1199B (R), shown in µM
  Modal MIC: 32 µM
[2]; S. aureus (MSSA) ATCC 9144 (S), shown in µM
  Modal MIC: 4 µM
E. coli LEC001; E. coli LEC001 (R), shown in µM
  Modal MIC: 4 µM
E. coli NCTC 12923; E. coli NCTC 12923 (S), shown in µM
  Modal MIC: 2 µM
C. auris TDG 1912; 50% growth inhibition, RPMI 1640 + 2% glucose, 37 °C, 20 h, OD600
  Modal MIC50: > 128 µg/mL
C. auris TDG 1912; 90% growth inhibition, RPMI 1640 + 2% glucose, 37 °C, 20 h, OD600
  Modal MIC90: > 128 µg/mL
C. auris TDG 1912; shown in µM
  Modal MIC50: > 64 µM
  Modal MIC90: > 64 µM
K. pneumoniae NCTC 13368; K. pneumoniae NCTC 13368 (R), shown in µM
  Modal MIC: 32 µM
K. pneumoniae M6; K. pneumoniae M6 (S), shown in µM
  Modal MIC: 16 µM
C. albicans NCPF 3281; [4]
  Modal MIC50: > 128 µg/mL
C. albicans NCPF 3281; [5]
  Modal MIC90: > 128 µg/mL
C. albicans NCPF 3281; shown in µM
  Modal MIC50: > 64 µM
  Modal MIC90: > 64 µM
[3]; [4]
  Modal MIC50: > 128 µg/mL
[3]; [5]
  Modal MIC90: > 128 µg/mL
[3]; shown in µM
  Modal MIC50: > 64 µM
  Modal MIC90: > 64 µM
C. krusei NCPF 3876
  Modal MIC50: 64 µM
  Modal MIC90: 64 µM
C. tropicalis NCPF 8760
  Modal MIC50: 16 µM
  Modal MIC90: 16 µM
C. glabrata NCPF 8018; [4]
  Modal MIC50: > 128 µg/mL
C. glabrata NCPF 8018; [5]
  Modal MIC90: > 128 µg/mL
C. glabrata NCPF 8018; shown in µM
  Modal MIC50: > 64 µM
  Modal MIC90: > 64 µM
P. aeruginosa NCTC 13437; [6]
  Modal MIC: > 128 µg/mL
P. aeruginosa NCTC 13437; shown in µM
  Modal MIC: > 64 µM
P. aeruginosa PAO1; [6]
  Modal MIC: > 128 µg/mL
P. aeruginosa PAO1; shown in µM
  Modal MIC: > 64 µM
A. baumannii AYE; A. baumannii AYE (R), shown in µM
  Modal MIC: 1 µM
A. baumannii ATCC 17978; A. baumannii ATCC 17978 (S), shown in µM
  Modal MIC: 2 µM
